Molecular target: T1, catalytic domain of Human PARP (Homo sapiens, UniProt P09874)
T1 construct: The catalytic domain of Human PARP was cloned and prepared; made in house
Experiment: Biacore surface plasmon resonance affinity assay
Type: binding
Conditions: pKD=-log10 KD, KD in mol/L; Biacore T100, 25° C.; read-out: pKD (converted)
Protocol: Dissociation Constant (KD) from Surface Plasmon Resonance
The catalytic domain of Human PARP was cloned and prepared as described in Kinoshita, et al. FEBS Letters (2006), 556:43-46. Purified enzyme was stored at −80° C. in 25 mM Tris(hydroxymethyl)aminomethane (‘Tris’) pH 7.4, 150 mM NaCl, 2 mM dithiothreitol (DTT) at a concentration of 6 mg/mL.
Biacore affinity assays for test compounds were conducted on a Biacore T100 (GE Healthcare) as follows. A Series S Sensor Chip CM5 (part number BR-1006-68, GE Healthcare) was activated for amide coupling with an Amine Coupling Kit (part number BR-1000-50, GE Healthcare) as described by the manufacturer. The mobile phase buffer consisted of Biacore buffer HBS-P (part number BR-1003-68, GE Healthcare) supplemented with 1% v/v dimethylsulfoxide (DMSO), 0.5 mM Tris(2-carboxyethyl)phosphine hydrochloride (TCEP), and 5 mM MgCl2. Enzyme samples (2 μL/6 mg/mL) stored at −80° C. were diluted to 0.080 mg/mL with 10 mM 4-morpholineethanesulfonic acid (MES) pH 6.5 and then mounted on the activated Biacore CM5 chip at a flow rate of 10 μL/min for 240 seconds. […] Test compounds were diluted 9 times 2-fold serially in mobile phase buffer (listed above) at 1% v/v DMSO final to generate a concentration gradient bracketing their anticipated KDs. Biacore mounted PARP was given a 1 minute exposure (association phase) to various concentrations of test compounds to observe a steady state equilibrium or an on-rate. The exposure was followed with a dissociation phase of 5 minutes. The association and dissociation phases were at a flow rate of 50 μL/min and a temperature of 25° C.
Parameters Rmax (response at saturation) and KD (binding constant) were calculated through a nonlinear least squares fitting of the equation to the data by use of the Biacore T100 analysis software.
Parameter optimization was through a nonlinear least squares analysis of the association phase Response=Rmax*(1−exp(−(kon[cmpd]+koff)*t)) and dissociation phase Response=[…] by use of the Biacore T100 analysis software. The binding constant KD was calculated from the definition KD=koff/kon

T1 sequence (P09874 788-1014 limits assumed): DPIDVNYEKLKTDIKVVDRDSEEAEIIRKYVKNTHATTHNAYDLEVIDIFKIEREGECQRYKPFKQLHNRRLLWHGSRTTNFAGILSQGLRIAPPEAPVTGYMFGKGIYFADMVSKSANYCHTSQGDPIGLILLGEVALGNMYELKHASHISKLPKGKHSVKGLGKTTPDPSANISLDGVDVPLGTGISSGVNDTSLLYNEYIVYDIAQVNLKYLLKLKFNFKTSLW

Row | SMILES | Kd [µM]
1 | CC1Oc2ccc(CN3CCC(c4noc5cc(F)ccc45)CC3)cc2NC1=O (centres unmarked) [Compound 55, 6-((4-(6-Fluorobenzo[d]isoxazol-3-yl)piperidin-1-yl)methyl)-2-methyl-2H-benzo[b][1,4]oxazin-3(4H)-one] | 1.26 to 10
2 | CC1Oc2ccc(CN3CCCc4ccccc43)cc2NC1=O (centres unmarked) [Compound 82, 6-((3,4-Dihydroquinolin-1(2H)-yl)methyl)-2-methyl-2H-benzo[b][1,4]oxazin-3(4H)-one] | > 10
3 | CCNC(=O)CN1CCN(Cc2ccc3c(c2)NC(=O)C(C)O3)CC1 (centres unmarked) [Compound 178, N-Ethyl-2-(4-((2-methyl-3-oxo-3,4-dihydro-2H-benzo[b][1,4]oxazin-6-yl)methyl)piperazin-1-yl)acetamide] | > 10
4 | CC1Oc2ccc(CN3CCC(c4ccc(Cl)cc4)CC3)cc2NC1=O (centres unmarked) [Compound 38, 6-((4-(4-Chlorophenyl)piperidin-1-yl)methyl)-2-methyl-2H-benzo[b][1,4]oxazin-3(4H)-one] | ≤ 0.01
5 | CC1Oc2cc(CN3CCC(c4ccc(C(=O)O)cc4)CC3)ccc2NC1=O (centres unmarked) [Compound 210, 4-(1-((2-Methyl-3-oxo-3,4-dihydro-2H-benzo[b][1,4]oxazin-7-yl)methyl)piperidin-4-yl)benzoic acid] | 12.6 to 79.4
6 | CC1Oc2ccc(CN3CCN(c4cccc(C(F)(F)F)c4)CC3)cc2NC1=O (centres unmarked) [Compound 221, 2-Methyl-6-((4-(3-(trifluoromethyl)phenyl)piperazin-1-yl)methyl)-2H-benzo[b][1,4]oxazin-3(4H)-one] | 1.26 to 10
7 | COCCNC(=O)CN1CCN(Cc2ccc3c(c2)NC(=O)C(C)O3)CC1 (centres unmarked) [Compound 177, N-(2-Methoxyethyl)-2-(4-((2-methyl-3-oxo-3,4-dihydro-2H-benzo[b][1,4]oxazin-6-yl)methyl)piperazin-1-yl)acetamide] | > 10
8 | CC1Oc2ccc(CN(C)CC(=O)N3CCCCC3)cc2NC1=O (centres unmarked) [Compound 138, 2-Methyl-6-((methyl(2-oxo-2-(piperidin-1-yl)ethyl)amino)methyl)-2H-benzo[b][1,4]oxazin-3(4H)-one] | 12.6 to 79.4
9 | CC1Oc2ccc(CCCO)cc2NC1=O (centres unmarked) [Compound 188, 6-(3-Hydroxypropyl)-2-methyl-2H-benzo[b][1,4]oxazin-3(4H)-one] | > 10
10 | CC1Oc2ccc(CN3CCN(CCO)CC3)cc2NC1=O (centres unmarked) [Compound 86, 6-((4-(2-Hydroxyethyl)piperazin-1-yl)methyl)-2-methyl-2H-benzo[b][1,4]oxazin-3(4H)-one] | 12.6 to 79.4
11 | CC1Oc2ccc(CN(C)CC(=O)NCc3ccccc3)cc2NC1=O (centres unmarked) [Compound 134, N-Benzyl-2-(methyl((2-methyl-3-oxo-3,4-dihydro-2H-benzo[b][1,4]oxazin-6-yl)methyl)amino)acetamide] | 1.26 to 10
12 | CC1Oc2cc(CN3CC=C(c4ccc(F)cc4)CC3)ccc2NC1=O (centres unmarked) [Compound 201, 7-((4-(4-Fluorophenyl)-5,6-dihydropyridin-1(2H)-yl)methyl)-2-methyl-2H-benzo[b][1,4]oxazin-3(4H)-one] | ≥ 100
13 | O=C1COc2ccc(CNCc3ccccc3)cc2N1 [Compound 29, 6-((Benzylamino)methyl)-2H-benzo[b][1,4]oxazin-3(4H)-one] | 1.26 to 10
14 | CC1Oc2ccc(-c3cccc(C(=O)NCc4ccccc4)c3)cc2NC1=O (centres unmarked) [Compound 147, N-Benzyl-3-(2-methyl-3-oxo-3,4-dihydro-2H-benzo[b][1,4]oxazin-6-yl)benzamide] | > 10
15 | O=C1COc2ccc(C(=O)N3CCC(c4ccccc4)CC3)cc2N1 [Compound 105, 6-(4-phenylpiperidine-1-carbonyl)-2H-benzo[b][1,4]oxazin-3(4H)-one] | ≥ 100
16 | CC1Oc2ccc(CN(C)CC(=O)N(C)Cc3ccc(Cl)cc3)cc2NC1=O (centres unmarked) [Compound 137, N-(4-Chlorobenzyl)-N-methyl-2-(methyl((2-methyl-3-oxo-3,4-dihydro-2H-benzo[b][1,4]oxazin-6-yl)methyl)amino)acetamide] | ≥ 100
17 | O=C1COc2ccc(C(=O)NCc3ccccc3)cc2N1 [Compound 107, N-Benzyl-3-oxo-3,4-dihydro-2H-benzo[b][1,4]oxazine-6-carboxamide] | ≥ 100

From patent US8669249B2, “Poly (ADP-ribose) polymerase (PARP) inhibitors” (Takeda Pharmaceutical Company Limited, priority 2009, dated 2014)
